From ChEMBL document CHEMBL1201862, “PubChem BioAssay data set” (2004)
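Five compound concentrations were applied to cells in 96-well plates for 48 hours; endpoints were derived by simple linear interpolation of the resulting dose-response curve. GI50 marks 50% less growth.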 Active and inactive are the calls of the source. No stated cut-off is given here; in the data, active = GI50 up to about 1.1 µM and inactive = higher.

Tests used:
Experiment in all cases: inhibition of tumour cell growth, NCI panel, 48 h
A498 = system: A498
A549 = system: A549
CAKI-1 = system: CAKI-1
CCRF-CEM = system: CCRF-CEM
COLO 205 = system: COLO 205
DLD-1 = system: DLD-1
DMS-114 = system: DMS-114
DMS-273 = system: DMS-273
EKVX = system: EKVX
HCC 2998 = system: HCC 2998
HCT-116 = system: HCT-116
HCT-15 = system: HCT-15
HL-60 = system: HL-60
HOP-18 = system: HOP-18
HOP-62 = system: HOP-62
HOP-92 = system: HOP-92
HT-29 = system: HT-29
IGROV-1 = system: IGROV-1
K562 = system: K562
KM-20L2 = system: KM-20L2
KM12 = system: KM12
LOX IMVI = system: LOX IMVI
M19-MEL = system: M19-MEL
MCF7 = system: MCF7
MOLT-4 = system: MOLT-4
Malme-3M = system: Malme-3M
NCI-H226 = system: NCI-H226
NCI-H23 = system: NCI-H23
NCI-H460 = system: NCI-H460
NCI-H522 = system: NCI-H522
NCI/ADR-RES = system: NCI/ADR-RES
OVCAR-3 = system: OVCAR-3
OVCAR-4 = system: OVCAR-4
OVCAR-5 = system: OVCAR-5
OVCAR-8 = system: OVCAR-8
RPMI-8226 = system: RPMI-8226
RXF 393 = system: RXF 393
SF-268 = system: SF-268
SF-295 = system: SF-295
SF-539 = system: SF-539
SK-MEL-28 = system: SK-MEL-28
SK-MEL-2 = system: SK-MEL-2
SK-MEL-5 = system: SK-MEL-5
SK-OV-3 = system: SK-OV-3
SN12C = system: SN12C
SNB-19 = system: SNB-19
SNB-75 = system: SNB-75
SNB-78 = system: SNB-78
SW-620 = system: SW-620
U-251 = system: U-251
UACC-257 = system: UACC-257
UACC-62 = system: UACC-62
UO-31 = system: UO-31
XF498 = system: XF498

Which results are given for `C=C/C(C)=C/[C@H](C)C(=O)C[C@H](O)CC1CC(=O)NC(=O)C1`?
GI50 (A498): 30.9 µM (inactive); GI50 (A549): 51.3 µM (inactive); GI50 (CAKI-1): 13.6 µM (inactive); GI50 (CCRF-CEM): 25 µM (inactive); GI50 (COLO 205): 34.1 µM (inactive); GI50 (DLD-1): 44.2 µM (inactive); GI50 (DMS-114): 38.3 µM (inactive); GI50 (DMS-273): 34.9 µM (inactive); GI50 (EKVX): 24.1 µM (inactive); GI50 (HCC 2998): 20.2 µM (inactive); GI50 (HCT-116): 40.3 µM (inactive); GI50 (HCT-15): 44.7 µM; GI50 (HL-60): 20.3 µM (inactive); GI50 (HOP-18): 19 µM (inactive); GI50 (HOP-62): 19.2 µM (inactive); GI50 (HOP-92): 21.7 µM (inactive); GI50 (HT-29): 34 µM (inactive); GI50 (IGROV-1): 19.9 µM (inactive); GI50 (K562): 43.4 µM (inactive); GI50 (KM-20L2): 19.2 µM (inactive); GI50 (KM12): 32.7 µM (inactive); GI50 (LOX IMVI): 43.1 µM (inactive); GI50 (M19-MEL): 80.4 µM (inactive); GI50 (MCF7): 27.5 µM (inactive); GI50 (MOLT-4): 19.8 µM (inactive); GI50 (Malme-3M): 16 µM (inactive); GI50 (NCI-H226): 41 µM (inactive); GI50 (NCI-H23): 36.9 µM (inactive); GI50 (NCI-H460): 37.7 µM (inactive); GI50 (NCI-H522): 21.2 µM (inactive); GI50 (NCI/ADR-RES): 57.4 µM (inactive); GI50 (OVCAR-3): 49.2 µM (inactive); GI50 (OVCAR-4): 19.6 µM (inactive); GI50 (OVCAR-5): 58.9 µM (inactive); GI50 (OVCAR-8): 24.2 µM (inactive); GI50 (RPMI-8226): 31.8 µM (inactive); GI50 (RXF 393): 38.5 µM (inactive); GI50 (SF-268): 36 µM (inactive); GI50 (SF-295): 36.1 µM (inactive); GI50 (SF-539): 35.1 µM (inactive); GI50 (SK-MEL-28): 28.6 µM (inactive); GI50 (SK-MEL-2): 28.9 µM (inactive); GI50 (SK-MEL-5): 34.5 µM (inactive); GI50 (SK-OV-3): > 41.9 µM (inactive); GI50 (SN12C): 25.5 µM (inactive); GI50 (SNB-19): 18.7 µM (inactive); GI50 (SNB-75): > 55.8 µM (inactive); GI50 (SNB-78): 27.4 µM (inactive); GI50 (SW-620): 31.5 µM (inactive); GI50 (U-251): 34.5 µM (inactive); GI50 (UACC-257): 30.1 µM (inactive); GI50 (UACC-62): 37.2 µM (inactive); GI50 (UO-31): 48.9 µM (inactive); GI50 (XF498): 2.86 µM (inactive)

`CN(C(=O)c1ccc(OCCCC(=O)O)c(Cl)c1Cl)C1CCCC1` was tested. Which GI50 (A498) did it give?
Its GI50 is > 89.5 µM (inactive).

And the GI50 (A549)?
Its GI50 is > 100 µM (inactive).

What about the GI50 (CAKI-1) of the same compound?
The GI50 was > 28.6 µM (inactive).

And the GI50 (CCRF-CEM)?
The GI50 was > 100 µM (inactive).

And the GI50 (COLO 205)?
Its GI50 is > 100 µM (inactive).

And the GI50 (DLD-1)?
The GI50 was > 100 µM (inactive).

What about the GI50 (DMS-114) of the same compound?
The GI50 was 69.5 µM (inactive).

What about the GI50 (DMS-273) of the same compound?
The GI50 was > 100 µM (inactive).

And the GI50 (EKVX)?
The GI50 was > 100 µM (inactive).

What about the GI50 (HCC 2998) of the same compound?
Its GI50 is > 100 µM (inactive).

And the GI50 (HCT-116)?
Its GI50 is > 62.8 µM (inactive).

And the GI50 (HCT-15)?
The GI50 was over 100 µM.

What about the GI50 (HL-60) of the same compound?
The GI50 was > 72.8 µM (inactive).

What about the GI50 (HOP-18) of the same compound?
The GI50 was > 73.1 µM (inactive).

What about the GI50 (HOP-62) of the same compound?
The GI50 was > 100 µM (inactive).

And the GI50 (HOP-92)?
The GI50 was 45.3 µM (inactive).

And the GI50 (HT-29)?
Its GI50 is > 100 µM (inactive).

And the GI50 (IGROV-1)?
The GI50 was > 100 µM (inactive).

What about the GI50 (K562) of the same compound?
The GI50 was > 100 µM (inactive).

And the GI50 (KM-20L2)?
The GI50 was > 100 µM (inactive).

And the GI50 (KM12)?
The GI50 was > 100 µM (inactive).

What about the GI50 (LOX IMVI) of the same compound?
Its GI50 is > 100 µM (inactive).

And the GI50 (M19-MEL)?
The GI50 was > 100 µM (inactive).

And the GI50 (MCF7)?
Its GI50 is > 100 µM (inactive).

And the GI50 (MOLT-4)?
The GI50 was > 100 µM (inactive).

What about the GI50 (Malme-3M) of the same compound?
The GI50 was > 100 µM (inactive).

And the GI50 (NCI-H226)?
Its GI50 is 83.8 µM (inactive).

And the GI50 (NCI-H23)?
The GI50 was > 76.7 µM (inactive).

What about the GI50 (NCI-H460) of the same compound?
Its GI50 is > 95.3 µM (inactive).

What about the GI50 (NCI-H522) of the same compound?
Its GI50 is 42.6 µM (inactive).

And the GI50 (NCI/ADR-RES)?
Its GI50 is > 100 µM (inactive).

And the GI50 (OVCAR-3)?
The GI50 was > 100 µM (inactive).

What about the GI50 (OVCAR-4) of the same compound?
Its GI50 is > 100 µM (inactive).

And the GI50 (OVCAR-5)?
Its GI50 is > 100 µM (inactive).

And the GI50 (OVCAR-8)?
The GI50 was > 100 µM (inactive).

What about the GI50 (RPMI-8226) of the same compound?
The GI50 was 98.6 µM (inactive).

What about the GI50 (RXF 393) of the same compound?
The GI50 was > 71.1 µM (inactive).

What about the GI50 (SF-268) of the same compound?
The GI50 was > 96.4 µM (inactive).

And the GI50 (SF-295)?
Its GI50 is > 72.6 µM (inactive).

And the GI50 (SF-539)?
Its GI50 is > 100 µM (inactive).

What about the GI50 (SK-MEL-28) of the same compound?
Its GI50 is > 100 µM (inactive).

And the GI50 (SK-MEL-2)?
Its GI50 is > 79.8 µM (inactive).

What about the GI50 (SK-MEL-5) of the same compound?
Its GI50 is > 100 µM (inactive).

What about the GI50 (SK-OV-3) of the same compound?
Its GI50 is > 100 µM (inactive).

What about the GI50 (SN12C) of the same compound?
Its GI50 is > 100 µM (inactive).

And the GI50 (SNB-19)?
The GI50 was > 100 µM (inactive).

And the GI50 (SNB-75)?
The GI50 was 80.4 µM (inactive).

And the GI50 (SNB-78)?
Its GI50 is > 100 µM (inactive).

And the GI50 (SW-620)?
The GI50 was > 100 µM (inactive).

What about the GI50 (U-251) of the same compound?
The GI50 was > 100 µM (inactive).

And the GI50 (UACC-257)?
The GI50 was > 100 µM (inactive).

What about the GI50 (UACC-62) of the same compound?
Its GI50 is > 100 µM (inactive).

And the GI50 (UO-31)?
The GI50 was > 60 µM (inactive).

And the GI50 (XF498)?
The GI50 was 28.4 µM (inactive).

What does the source list for `COc1ccc2cc1Oc1ccc(cc1)C[C@H]1c3cc(c(OC)cc3CCN1C)Oc1c(O)c(OC)cc3c1[C@H](C2)N(C)CC3` [FANGCHINOLINE]?
GI50 (A498): 18 µM (inactive); GI50 (A549): 31.5 µM (inactive); GI50 (CAKI-1): 3.54 µM (inactive); GI50 (CCRF-CEM): 24.3 µM (inactive); GI50 (COLO 205): 15.8 µM (inactive); GI50 (DLD-1): 23.4 µM (inactive); GI50 (DMS-114): 24.7 µM (inactive); GI50 (DMS-273): 14.7 µM (inactive); GI50 (EKVX): 4.45 µM (inactive); GI50 (HCC 2998): 17.6 µM (inactive); GI50 (HCT-116): 13.3 µM (inactive); GI50 (HCT-15): 13.3 µM; GI50 (HL-60): 14 µM (inactive); GI50 (HOP-18): 32.2 µM (inactive); GI50 (HOP-62): 37.6 µM (inactive); GI50 (HOP-92): 7.64 µM (inactive); GI50 (HT-29): 22.3 µM (inactive); GI50 (IGROV-1): 27.1 µM (inactive); GI50 (K562): 11.4 µM (inactive); GI50 (KM-20L2): 1.7 µM (inactive); GI50 (KM12): 16.8 µM (inactive); GI50 (LOX IMVI): 5.3 µM (inactive); GI50 (M19-MEL): 22.6 µM (inactive); GI50 (MCF7): 26.6 µM (inactive); GI50 (MOLT-4): 11.7 µM (inactive); GI50 (Malme-3M): 30.7 µM (inactive); GI50 (NCI-H226): 39.9 µM (inactive); GI50 (NCI-H23): 40 µM (inactive); GI50 (NCI-H460): 21.8 µM (inactive); GI50 (NCI-H522): 27.5 µM (inactive); GI50 (NCI/ADR-RES): 29.4 µM (inactive); GI50 (OVCAR-3): 21.6 µM (inactive); GI50 (OVCAR-4): 26.5 µM (inactive); GI50 (OVCAR-5): 46.3 µM (inactive); GI50 (OVCAR-8): 5.25 µM (inactive); GI50 (RPMI-8226): 8.91 µM (inactive); GI50 (RXF 393): 16.5 µM (inactive); GI50 (SF-268): 30.2 µM (inactive); GI50 (SF-295): 16.9 µM (inactive); GI50 (SF-539): 20.3 µM (inactive); GI50 (SK-MEL-28): 21.8 µM (inactive); GI50 (SK-MEL-2): 26.5 µM (inactive); GI50 (SK-MEL-5): 13.6 µM (inactive); GI50 (SK-OV-3): 28.4 µM (inactive); GI50 (SN12C): 38.8 µM (inactive); GI50 (SNB-19): 43.8 µM (inactive); GI50 (SNB-75): 28.7 µM (inactive); GI50 (SNB-78): 40.7 µM (inactive); GI50 (SW-620): 15 µM (inactive); GI50 (U-251): 27.2 µM (inactive); GI50 (UACC-257): 9.48 µM (inactive); GI50 (UACC-62): 20.7 µM (inactive); GI50 (UO-31): 25.5 µM (inactive); GI50 (XF498): 27.4 µM (inactive)
